Test results published in patent publication US8435978B2, “Substituted sulfonamide compounds” (Gruenenthal GmbH, priority 2006, dated 2013).
Where a name gives a salt, the structure may show the parent alone.

How the values were obtained:
[1] = molecular target: T1, human B1R receptor (Homo sapiens, UniProt P46663); experiment: Functional study on the bradykinin receptor 1 (B1R), FLIPR Ca2+ assay, hB1R cells; assay type: cell-based; conditions: CHO-K1, test substance 10 μM, agonist Lys-Des-Arg9-bradykinin 0.5 nM, % inhibition compared with the maximum achievable inhibition, read-out: B1R Antagonism, human [10 μM] % Inhibition
T1 construct: host or cells: CHO K1 cells (Chinese hamster ovary), stably transfected
T1 sequence (P46663 1-353): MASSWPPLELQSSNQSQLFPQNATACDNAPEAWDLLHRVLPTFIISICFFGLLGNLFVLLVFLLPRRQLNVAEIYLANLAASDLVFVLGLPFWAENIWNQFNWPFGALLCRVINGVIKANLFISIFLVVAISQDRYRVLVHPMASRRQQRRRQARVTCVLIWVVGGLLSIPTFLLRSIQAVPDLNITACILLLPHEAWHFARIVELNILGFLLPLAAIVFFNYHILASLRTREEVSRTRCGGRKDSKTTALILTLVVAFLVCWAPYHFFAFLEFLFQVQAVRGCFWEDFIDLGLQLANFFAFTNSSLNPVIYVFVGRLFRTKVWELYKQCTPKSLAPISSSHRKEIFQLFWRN
Protocol: (§1) The agonistic or antagonistic action of substances can be quantified on the bradykinin receptor 1 (B1R) of the species human and rat with ectopically expressing cell lines (CHO K1 cells) and with the aid of a Ca^2+-sensitive dye (Fluo-4) using a fluorescent imaging plate reader (FLIPR). The indication in % activation is based on the Ca^2+ signal after addition of Lys-Des-Arg^9-bradykinin (0.5 nM) or Des-Arg^9-bradykinin (100 nM). Antagonists result in a suppression of the Ca^2+ influx following administration of the agonist. The % inhibition in comparison with the maximum achievable inhibition is indicated.
(§2) The agonistic or antagonistic action of substances can be determined on the bradykinin receptor 1 (B1R) of the species human and rat using the following assay. According to this assay, the Ca^2+ influx through the channel is quantified with the aid of a Ca^2+-sensitive dye (type Fluo-4, Molecular Probes Europe BV, Leiden, Netherlands) using a Fluorescent Imaging Plate Reader (FLIPR, Molecular Devices, Sunnyvale, USA).
(§3) Chinese hamster ovary cells (CHO K1 cells) which have been stably transfected with the human B1R gene (hB1R cells, Euroscreen s.a., Gosselies, Belgium) or with the B1R gene of the rat (rB1R cells, Axxam, Milan, Italy) are used. For functional studies, the cells are plated out on black 96-well plates having a clear base (BD Biosciences, Heidelberg, Germany) in a density of 20,000-25,000 cells/well. The cells are incubated overnight at 37° C. and with 5% CO2 in culture medium (hB1R cells: Nutrient Mixture Ham's F12, Gibco Invitrogen GmbH, Karlsruhe, Germany; rB1R cells: D-MEM/F12, Gibco Invitrogen GmbH, Karlsruhe, Germany), with 10 vol. % FBS (fetal bovine serum, Gibco Invitrogen GmbH, Karlsruhe, Germany). On the following day, the cells are loaded for 60 minutes at 37° C. with 2.13 μM Fluo-4 (Molecular Probes Europe BV, Leiden, Netherlands) in HBSS buffer (Hank's buffered saline solution, Gibco Invitrogen GmbH, Karlsruhe, Germany) […] (Sigma-Aldrich, Taufkirchen, Germany) and 10 mM HEPES (Sigma-Aldrich, Taufkirchen, Germany). The plates are then washed twice with HBSS buffer, and HBSS buffer additionally containing 0.1% BSA (bovine serum albumin; Sigma-Aldrich, Taufkirchen, Germany), 5.6 mM glucose and 0.05% gelatin (Merck KGaA, Darmstadt, Germany) is added to the plates. After incubation for a further 20 minutes at room temperature, the plates are inserted into the FLIPR for Ca^2+ measurement. The Ca^2+-dependent fluorescence is measured before and after the addition of substances (λex=488 nm, λem=540 nm). Quantification is carried out by measuring the highest fluorescence intensity (FC, fluorescence counts) over time.
(§4) The FLIPR protocol consists of 2 substance additions. Test substances (10 μM) are first pipetted onto the cells and the Ca^2+ influx is compared with the control (hB1R: Lys-Des-Arg^9-bradykinin 0.5 nM; rB1R: Des-Arg^9-bradykinin 100 nM). This gives the activation in %, based on the Ca^2+ signal after addition of Lys-Des-Arg^9-bradykinin (0.5 nM) or Des-Arg^9-bradykinin (100 nM).
(§5) After 10 minutes' incubation, 0.5 nM Lys-Des-Arg^9-bradykinin (hB1R) or 100 nM Des-Arg^9-bradykinin (rB1R) are applied, and the influx of Ca^2+ is likewise determined. Antagonists lead to suppression of the Ca^2+ influx. The % inhibition compared with the maximum achievable inhibition is calculated.

[2] = molecular target: T2, B1R receptor of the rat (Rattus norvegicus, UniProt P97583); experiment: Functional study on the bradykinin receptor 1 (B1R), FLIPR Ca2+ assay, rB1R cells; assay type: cell-based; conditions: CHO-K1, test substance 10 μM, agonist Des-Arg9-bradykinin 100 nM, % inhibition compared with the maximum achievable inhibition, read-out: B1R Antagonism, rat [10 μM] % Inhibition
T2 construct: host or cells: CHO K1 cells (Chinese hamster ovary), stably transfected
T2 sequence (P97583 1-337): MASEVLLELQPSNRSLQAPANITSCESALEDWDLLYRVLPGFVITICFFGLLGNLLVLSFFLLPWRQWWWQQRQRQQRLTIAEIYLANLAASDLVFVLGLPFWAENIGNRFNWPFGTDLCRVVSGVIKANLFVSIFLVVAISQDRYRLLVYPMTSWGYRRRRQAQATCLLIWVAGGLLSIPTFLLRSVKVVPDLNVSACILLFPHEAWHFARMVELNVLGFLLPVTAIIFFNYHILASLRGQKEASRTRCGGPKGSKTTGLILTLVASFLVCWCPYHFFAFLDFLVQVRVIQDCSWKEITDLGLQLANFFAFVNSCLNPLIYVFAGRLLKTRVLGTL
Protocol: as §1, §2, §3, §4, §5

SMILES	inhibition at 10 µM [1] [%]	inhibition at 10 µM [2] [%]
CCN(CC)CCN(CCN(CC)CC)C(=O)COCC1Cc2ccccc2CN1S(=O)(=O)c1c(C)cc(C)cc1C (stereo not drawn) [Example 48, N,N-bis-(2-diethylamino-ethyl)-2-[2-(2,4,6-trimethyl-phenylsulfonyl)-1,2,3,4-tetra-hydro-isoquinolin-3-ylmethoxy]-acetamide]	66.6	30.5
O=C(COCC1CCCN1S(=O)(=O)c1ccc(Cl)c(Cl)c1)N1CCN(Cc2ccc3c(c2)OCO3)CC1 (stereo not drawn) [Example 44, 1-(4-benzo[1,3]dioxol-5-ylmethyl-piperazin-1-yl)-2-[1-(3,4-dichloro-phenylsulfonyl)-pyrrolidin-2-ylmethoxy]-ethanone]	69.6	0
CN1CCC(N2CCN(C(=O)COCC3CCCCN3S(=O)(=O)c3cc(Cl)sc3Cl)CC2)CC1 (stereo not drawn) [Example 170, 2-((1-(2,5-dichlorothiophen-3-ylsulfonyl)piperidin-2-yl)methoxy)-1-(4-(1-methylpiperidin-4-yl)piperazin-1-yl)ethanone dihydrochloride]	101	97.8
COc1cc(C)c(S(=O)(=O)N2CCCCC2COCC(=O)N2CCC(N3CCC(F)CC3)CC2)c(C)c1 (stereo not drawn) [Example 130, 1-(4-fluoro-1,4′-bipiperidin-1′-yl)-2-((1-(4-methoxy-2,6-dimethylphenylsulfonyl)piperidin-2-yl)methoxy)ethanone]	103	96.3
COc1cc(C)c(S(=O)(=O)N2CCCCC2COCC(=O)N2CCNCC2)c(C)c1 (stereo not drawn) [Example 102, 2-((1-(4-methoxy-2,6-dimethylphenylsulfonyl)piperidin-2-yl)methoxy)-1-(piperazin-1-yl)ethanone hydrochloride]	104	100
COc1cc(C)c(S(=O)(=O)N2CCCCC2COCC(=O)Nc2ccc(N3CCOCC3)nc2)c(C)c1 (stereo not drawn) [Example 396, 2-((1-(4-methoxy-2,6-dimethylphenylsulfonyl)piperidin-2-yl)methoxy)-N-(6-morpholinopyridin-3-yl)acetamide]	24.7	80.6
COc1cccc(N2CCN(C(=O)COCC3CCCN3S(=O)(=O)c3c(Cl)cccc3Cl)CC2)c1 (stereo not drawn) [Example 324, 2-((1-(2,6-dichlorophenylsulfonyl)pyrrolidin-2-yl)methoxy)-1-(4-(3-methoxyphenyl)piperazin-1-yl)ethanone]	84	98.4
COc1cc(C)c(S(=O)(=O)N2CCCCC2COCC(=O)N2CCN(Cc3cnc(N(C)c4ccc(F)cc4)nc3)CC2)c(C)c1 (stereo not drawn) [Example 214, 1-(4-((2-((4-fluorophenyl)(methyl)amino)pyrimidin-5-yl)methyl)piperazin-1-yl)-2-((1-(4-methoxy-2,6-dimethylphenylsulfonyl)piperidin-2-yl)methoxy)ethanone]	101	102
O=C(COCC1CCCN1S(=O)(=O)c1ccc(Cl)c(Cl)c1)N1CCC(CCN2CCCCC2)CC1 (stereo not drawn) [Example 36, 2-((1-(3,4-dichlorophenylsulfonyl)pyrrolidin-2-yl)methoxy)-1-(4-(2-(piperidin-1-yl)-ethyl)piperidin-1-yl)ethanone]	79.4	45.7
CN1CCC(N2CCN(C(=O)COC[C@@H]3Cc4ccccc4CN3S(=O)(=O)c3ccc(Cl)cc3Cl)CC2)CC1 [Example 133, (S)-2-((2-(2,4-dichlorophenylsulfonyl)-1,2,3,4-tetrahydroisoquinolin-3-yl)methoxy)-1-(4-(1-methylpiperidin-4-yl)piperazin-1-yl)ethanone]	103	98.1

Now from value to compound:

inhibition at 10 µM [1] [%]	inhibition at 10 µM [2] [%]	SMILES
102	103	COc1cc(C)c(S(=O)(=O)N2CCCCC2COCC(=O)N2CCN(CCC#N)CC2)c(C)c1 (stereo not drawn) [Example 410, 3-(4-(2-((1-(4-methoxy-2,6-dimethylphenylsulfonyl)piperidin-2-yl)methoxy)acetyl)piperazin-1-yl)propanenitrile]
101	102	O=C(COCC1CCCCN1S(=O)(=O)c1c(Cl)cccc1Cl)NC1CCN(Cc2ccccc2)CC1 (stereo not drawn) [Example 488, N-(1-benzylpiperidin-4-yl)-2-((1-(2,6-dichlorophenylsulfonyl)piperidin-2-yl)methoxy)acetamide]
39.4	107	COc1cc(C)c(S(=O)(=O)N2CCCC2COCC(=O)NCc2ccc(N3CCOCC3)cc2)c(C)c1 (stereo not drawn) [Example 579, 2-((1-(4-methoxy-2,6-dimethylphenylsulfonyl)pyrrolidin-2-yl)methoxy)-N-(4-morpholinobenzyl)acetamide]
96.7	103	COc1cc(C)c(S(=O)(=O)N2CCCC2COCC(=O)NCC(c2ccccc2Cl)N2CCCC2)c(C)c1 (stereo not drawn) [Example 502, N-(2-(2-chlorophenyl)-2-(pyrrolidin-1-yl)ethyl)-2-((1-(4-methoxy-2,6-dimethylphenylsulfonyl)pyrrolidin-2-yl)methoxy)acetamide]
97.4	101	COc1cc(C)c(S(=O)(=O)N2CCCC2COCC(=O)N(Cc2ccccc2)c2cc(C)ccn2)c(C)c1 (stereo not drawn) [Example 463, N-benzyl-2-((1-(4-methoxy-2,6-dimethylphenylsulfonyl)pyrrolidin-2-yl)methoxy)-N-(4-methylpyridin-2-yl)acetamide]
92.3	102	COc1cc(C)c(S(=O)(=O)N2CCCC2COCC(=O)N2CCN(c3ncc(C(F)(F)F)cc3Cl)CC2)c(C)c1 (stereo not drawn) [Example 469, 1-(4-(3-chloro-5-(trifluoromethyl)pyridin-2-yl)piperazin-1-yl)-2-((1-(4-methoxy-2,6-dimethylphenylsulfonyl)pyrrolidin-2-yl)methoxy)ethanone]
90.8	95.6	COc1cc(C)c(S(=O)(=O)N2CCCCC2COCC(=O)NCCN2CCN(Cc3ccccc3)CC2)c(C)c1 (stereo not drawn) [Example 401, N-(2-(4-benzylpiperazin-1-yl)ethyl)-2-((1-(4-methoxy-2,6-dimethylphenylsulfonyl)piperidin-2-yl)methoxy)acetamide]
8.96	87.1	CN(C)c1ccc(CNC(=O)COCC2CCCCN2S(=O)(=O)c2c(Cl)cc(Cl)cc2Cl)cc1 (stereo not drawn) [Example 578, N-(4-(dimethylamino)benzyl)-2-((1-(2,4,6-trichlorophenylsulfonyl)piperidin-2-yl)methoxy)acetamide]
